# Test results as given in PubChem BioAssay (NCI).
#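 Briefly, cells in 96-well plates were exposed to five compound concentrations for 48 h, and endpoints were estimated by linear interpolation. Abbreviation: GI50, concentration required for 50% inhibition of growth. TGI denotes the concentration required for complete inhibition of growth.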
# Assays:
# Assay in all cases: NCI-60 cell line screen, 48 h
# [1] = test system: HOP-62 NSCLC
# [2] = test system: TK-10 renal
# [3] = test system: OVCAR-8 ovarian
# [4] = test system: LOX IMVI melanoma
# [5] = test system: T-47D breast
# [6] = test system: NCI-H226 lung
# [7] = test system: U251 CNS
# [8] = test system: HOP-92 NSCLC
# [9] = test system: HT29 colon
# [10] = test system: SW-620 colon
# [11] = test system: K-562 leukemia
# [12] = test system: IGROV1 ovarian
# [13] = test system: UACC-257 melanoma
# [14] = test system: ACHN renal
# [15] = test system: MDA-MB-435
# [16] = test system: SF-539 CNS
# [17] = test system: NCI-H23 lung
# [18] = test system: 786-0 renal
# [19] = test system: SF-268 CNS
# [20] = test system: PC-3 prostate
# [21] = test system: HCT-116 colon
# [22] = test system: SNB-75 CNS
# [23] = test system: HL-60(TB) leukemia
# [24] = test system: MDA-MB-231 breast
# [25] = test system: UACC-62 melanoma
# [26] = test system: SK-OV-3 ovarian
# [27] = test system: HS 578T breast
# [28] = test system: RPMI-8226 leukemia
# [29] = test system: SR leukemia
# [30] = test system: SK-MEL-2 melanoma
# [31] = test system: DU-145 prostate
# [32] = test system: A549 NSCLC
# [33] = test system: KM12 colon
# [34] = test system: COLO 205 colon
# [35] = test system: SK-MEL-28 melanoma
# [36] = test system: UO-31 renal
# [37] = test system: NCI/ADR-RES ovarian
# [38] = test system: MOLT-4 leukemia
# [39] = test system: SNB-19 CNS
# [40] = test system: OVCAR-4 ovarian
# [41] = test system: CAKI-1 renal
# [42] = test system: MALME-3M melanoma
# [43] = test system: M14 melanoma
# [44] = test system: SK-MEL-5 melanoma
# [45] = test system: SN12C renal
# [46] = test system: MCF7 breast
# [47] = test system: NCI-H460 lung
# [48] = test system: OVCAR-5 ovarian
# [49] = test system: BT-549 breast
# [50] = test system: OVCAR-3 ovarian
# [51] = test system: EKVX NSCLC
# [52] = test system: A498 renal
# [53] = test system: HCT-15 colon
# [54] = test system: NCI-H522 lung
# [55] = test system: CCRF-CEM leukemia
# [56] = test system: SF-295 CNS
smiles,measurement,setting,value
COc1cc2c3c(n(CCCCOC(=O)C(Cl)(Cl)Cl)c(=O)c2cc1OC)-c1cc2c(cc1C3=O)OCO2,GI50,[1],29.3 µM
same,TGI,[1],> 100 µM
same,GI50,[2],> 100 µM
same,TGI,[2],> 100 µM
same,GI50,[3],27.9 µM
same,TGI,[3],> 100 µM
same,GI50,[4],35.9 µM
same,TGI,[4],> 100 µM
same,GI50,[5],> 100 µM
same,TGI,[5],> 100 µM
same,GI50,[6],67.6 µM
same,TGI,[6],> 100 µM
same,GI50,[7],21.5 µM
same,TGI,[7],> 100 µM
same,GI50,[8],> 100 µM
same,TGI,[8],> 100 µM
same,GI50,[9],> 100 µM
same,TGI,[9],> 100 µM
same,GI50,[10],85.5 µM
same,TGI,[10],> 100 µM
same,GI50,[11],> 100 µM
same,TGI,[11],> 100 µM
same,GI50,[12],14.4 µM
same,TGI,[12],> 100 µM
same,GI50,[13],> 100 µM
same,TGI,[13],> 100 µM
same,GI50,[14],14.2 µM
same,TGI,[14],59.5 µM
same,GI50,[15],> 100 µM
same,TGI,[15],> 100 µM
same,GI50,[16],60.1 µM
same,TGI,[16],> 100 µM
same,GI50,[17],92 µM
same,TGI,[17],> 100 µM
same,GI50,[18],17.2 µM
same,TGI,[18],41.3 µM
same,GI50,[19],30 µM
same,TGI,[19],> 100 µM
same,GI50,[20],> 100 µM
same,TGI,[20],> 100 µM
same,GI50,[21],17 µM
same,TGI,[21],34.2 µM
same,GI50,[22],> 100 µM
same,TGI,[22],> 100 µM
same,GI50,[23],> 100 µM
same,TGI,[23],> 100 µM
same,GI50,[24],50.3 µM
same,TGI,[24],> 100 µM
same,GI50,[25],22.5 µM
same,TGI,[25],> 100 µM
same,GI50,[26],> 100 µM
same,TGI,[26],> 100 µM
same,GI50,[27],94.7 µM
same,TGI,[27],> 100 µM
same,GI50,[28],> 100 µM
same,TGI,[28],> 100 µM
same,GI50,[29],1140 nM
same,TGI,[29],15 µM
same,GI50,[30],> 100 µM
same,TGI,[30],> 100 µM
same,GI50,[31],20.4 µM
same,TGI,[31],> 100 µM
same,GI50,[32],> 100 µM
same,TGI,[32],> 100 µM
same,GI50,[33],> 100 µM
same,TGI,[33],> 100 µM
same,GI50,[34],> 100 µM
same,TGI,[34],> 100 µM
same,GI50,[35],> 100 µM
same,TGI,[35],> 100 µM
same,GI50,[36],14.1 µM
same,TGI,[36],> 100 µM
same,GI50,[37],82.7 µM
same,TGI,[37],> 100 µM
same,GI50,[38],5.67 µM
same,TGI,[38],> 100 µM
same,GI50,[39],> 100 µM
same,TGI,[39],> 100 µM
same,GI50,[40],> 100 µM
same,TGI,[40],> 100 µM
same,GI50,[41],4.61 µM
same,TGI,[41],> 100 µM
same,GI50,[42],> 100 µM
same,TGI,[42],> 100 µM
same,GI50,[43],24.3 µM
same,TGI,[43],71.9 µM
same,GI50,[44],> 100 µM
same,TGI,[44],> 100 µM
same,GI50,[45],43.7 µM
same,TGI,[45],> 100 µM
same,GI50,[46],11.5 µM
same,TGI,[46],> 100 µM
same,GI50,[47],2410 nM
same,TGI,[47],> 100 µM
same,GI50,[48],> 100 µM
same,TGI,[48],> 100 µM
same,GI50,[49],57.1 µM
same,TGI,[49],> 100 µM
same,GI50,[50],> 100 µM
same,TGI,[50],> 100 µM
same,GI50,[51],> 100 µM
same,TGI,[51],> 100 µM
same,GI50,[52],> 100 µM
same,TGI,[52],> 100 µM
same,GI50,[53],> 100 µM
same,TGI,[53],> 100 µM
same,GI50,[54],692 nM
same,TGI,[54],76.3 µM
same,GI50,[55],10.5 µM
same,TGI,[55],> 100 µM
same,GI50,[56],8.71 µM
same,TGI,[56],> 100 µM
